pEC50: −log10 of the molar value. *1 amine or outer side, *2 acyl side, *3 side chain or, on linkers, in order; H or OH if unused. Where a SMILES comes first, the peptide text is derived from it. Side-chain parts run from the residue outwards. [ ]: non-standard residue; d: D form. The star is where a group is joined. C18 diacid = O=C(O)CCCCCCCCCCCCCCCCC(=O)*; C16 diacid = O=C(O)CCCCCCCCCCCCCCC(=O)*; γGlu = O=C(O)[C@H](CCC(=O)[*:2])N[*:1]; NMeI = CC[C@H](C)[C@H](NC)C(=O)O; αMeL = CC(C)C[C@](C)(N)C(=O)O; AEEA = NCCOCCOCC(=O)O; Aib = CC(C)(N)C(=O)O
Legend:
[1] = Chemical stability in buffer (pH 7.4 / pH 4.5), % purity loss; assay type: physicochemical; conditions: 40° C. vs 5° C., 14 or 28 days; for Buffer stability pH 7.4 % purity loss: 100 mM phosphate buffer pH 7.4; for Buffer stability pH 4.5 % purity loss: 100 mM acetate buffer pH 4.5
Method: Solubility and chemical stability were studied in 100 mM phosphate buffer (pH 7.4) and 100 mM acetate buffer (pH 4.5). Test compound powders were dissolved in both buffers at a target concentration of 10 mg/mL and incubated for 1 hour at room temperature. After centrifugation at 2500 rcf for 15 minutes, 10 μL of supernatant was diluted with 190 μL of the incubation buffer and analyzed by LC-UV (Acquity UPLC-DAD, Waters). Solubility was calculated by comparing the peak area of the test compound in the buffer sample with the peak area of the same compound dissolved at 0.5 mg/mL in water:acetonitrile 1:1, 0.1% formic acid.
From the centrifuged supernatant, two additional 80 μL aliquots were collected and diluted with 160 μL of incubation buffer. One aliquot was stored at 5° C., while the other was stored at 40° C. After 14 or 28 days, the samples were analyzed by LC-UV. Chemical stability was calculated as % loss using the following equations: […]

CFR1R receptor = target: T1, CFR1R receptor (Homo sapiens, UniProt P34998); test: Activity at anti-target CFR1R receptor, cAMP assay in CRF1R-overexpression CHO-K1 cells; assay type: cell-based; conditions: 100% = Sauvagine at 100 nM; for pEC50: cAMP
T1 construct: host or cells: CHO-K1 (clone 2)
T1 sequence (P34998 24-415): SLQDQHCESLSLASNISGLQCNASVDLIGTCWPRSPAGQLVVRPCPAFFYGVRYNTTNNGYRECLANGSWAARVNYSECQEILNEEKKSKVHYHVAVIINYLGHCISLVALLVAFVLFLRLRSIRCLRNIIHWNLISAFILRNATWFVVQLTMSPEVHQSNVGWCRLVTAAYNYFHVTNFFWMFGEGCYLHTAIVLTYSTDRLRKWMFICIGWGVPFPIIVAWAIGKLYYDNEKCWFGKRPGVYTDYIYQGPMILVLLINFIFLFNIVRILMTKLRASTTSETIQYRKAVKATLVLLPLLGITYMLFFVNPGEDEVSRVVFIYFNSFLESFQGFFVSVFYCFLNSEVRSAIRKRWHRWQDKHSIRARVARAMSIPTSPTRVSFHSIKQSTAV
In short: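 Signal is normalised to 100 nM Sauvagine, taken as 100% activation, in clone 2 cells plated at a final 4000 cells/well from frozen stocks.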

Sprague Dawley rats = test: Effect on systolic blood pressure, telemetry in Sprague Dawley rats; assay type: in vivo, rat; conditions: 0.1 mg/kg SC; for Systolic blood pressure (Mean) % change from baseline, 8 h / Systolic blood pressure (Mean) % change from baseline, 12 h / Systolic blood pressure (Mean) % change from baseline, 24 h: n=2; for Duration of action: last time point with an effect on BP still observed
In short: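 Sprague Dawley rats with abdominal-aorta telemetry catheters, recovered ≥10 days, received 0.1 mg/kg SC of compound or vehicle. Systolic pressure recorded 1 h pre-dose as baseline, then continuously up to 48 hours, expressed as % change from baseline; duration of action is last time point with a BP effect (n=2).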

human CRF2a receptor = target: T2, human CRF2a receptor (Homo sapiens, UniProt Q13324); test: Activity at human CRF2a receptor, cAMP functional assay in TeloHEAC cells; assay type: cell-based; conditions: TeloHEAC cells stably expressing human CRF2a receptor, relative to urocortin 2 (100 nM = 100%)
T2 construct: expressed in transfected cells; host or cells: TeloHEAC cells
T2 sequence (Q13324 1-411): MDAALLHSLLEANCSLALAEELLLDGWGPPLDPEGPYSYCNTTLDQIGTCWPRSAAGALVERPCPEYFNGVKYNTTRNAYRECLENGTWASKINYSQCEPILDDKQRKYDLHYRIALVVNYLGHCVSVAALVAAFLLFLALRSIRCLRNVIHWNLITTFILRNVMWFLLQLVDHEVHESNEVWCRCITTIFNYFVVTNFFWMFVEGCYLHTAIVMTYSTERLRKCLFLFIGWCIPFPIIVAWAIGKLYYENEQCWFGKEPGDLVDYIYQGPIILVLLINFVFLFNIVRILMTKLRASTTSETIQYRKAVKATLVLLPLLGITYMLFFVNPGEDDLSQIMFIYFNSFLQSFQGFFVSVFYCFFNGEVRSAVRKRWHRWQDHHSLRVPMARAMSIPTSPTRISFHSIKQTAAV
In short: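 cAMP accumulation was measured by HTRF 665/620 nm ratio after 30 min at 37° C compound exposure (16 twofold dilutions) of CRF2a-expressing TeloHEAC cells, 10000/well, in HEPES-buffered HBSS plus IBMX. Activity was normalised to urocortin 2 at 100 nM (100%), and EC50 was the concentration giving half-maximal activation.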

CC[C@H](C)[C@H](NC(C)=O)C(=O)N[C@H](C(=O)N[C@@H](CC(C)C)C(=O)N[C@@H](CO)C(=O)N[C@@H](CC(C)C)C(=O)N[C@@H](CC(=O)O)C(=O)N[C@H](C(=O)N1CCC[C@H]1C(=O)N[C@H](C(=O)N[C@@H](CCCCN)C(=O)N[C@@](C)(CC(C)C)C(=O)N[C@@H](CCCCNC(=O)CC[C@H](NC(=O)CCCCCCCCCCCCCCC(=O)O)C(=O)O)C(=O)N[C@@H](CCCCN)C(=O)N[C@H](C(=O)N[C@@H](CC(C)C)C(=O)N[C@@H](CC(C)C)C(=O)N[C@@H](CCC(=O)O)C(=O)N[C@@H](CCC(N)=O)C(=O)N[C@@H](CCC(=O)O)C(=O)N[C@@H](CCCCN)C(=O)N[C@@H](CCC(N)=O)C(=O)N[C@@H](CCCCN)C(=O)N[C@@H](CCCCN)C(=O)N[C@@H](CCC(N)=O)C(=O)N[C@@H](CCCNC(=N)N)C(=O)N[C@@H](CCC(=O)O)C(=O)N[C@@H](CCC(N)=O)C(=O)N[C@@H](C)C(=O)N[C@@H](CCC(=O)O)C(=O)N[C@H](C(=O)N[C@@H](CC(N)=O)C(=O)NC(C)(C)C(=O)N[C@@H](CCC(N)=O)C(=O)N[C@H](C(=O)N[C@@H](CC(C)C)C(=O)N[C@@H](C)C(=O)N[C@@H](CCC(N)=O)C(=O)N[C@H](C(N)=O)C(C)C)[C@@H](C)CC)[C@@H](C)O)[C@@H](C)CC)[C@@H](C)CC)C(C)C)C(C)C [compound 43] (Ac-IVLSLDVPIK[αMeL]K([γGlu-C16 diacid])KILLEQEKQKKQREQAETN[Aib]QILAQV-NH2)
Buffer stability pH 7.4 % purity loss [1]: 0/nd ^ %
Emax (% I) (CFR1R receptor): 1 % I
pEC50 (CFR1R receptor): < 6.60
Systolic blood pressure (Mean) % change from baseline, 8 h (Sprague Dawley rats): −18%
Systolic blood pressure (Mean) % change from baseline, 12 h (Sprague Dawley rats): −1%
Systolic blood pressure (Mean) % change from baseline, 24 h (Sprague Dawley rats): 13%
Duration of action (Sprague Dawley rats): 12 h
pEC50 (human CRF2a receptor): 9.52

CC[C@H](C)[C@H](NC)C(=O)N[C@H](C(=O)N[C@@H](CC(C)C)C(=O)N[C@@H](CO)C(=O)N[C@@H](CC(C)C)C(=O)N[C@@H](CC(=O)O)C(=O)N[C@@H](C(=O)N1CCC[C@H]1C(=O)N[C@H](C(=O)N[C@@H](CCCCN)C(=O)N[C@@H](CC(C)C)C(=O)N[C@@H](CCCCNC(=O)CC[C@H](NC(=O)CCCCCCCCCCCCCCC(=O)O)C(=O)O)C(=O)N[C@@H](CCCCN)C(=O)N[C@H](C(=O)N[C@@H](CC(C)C)C(=O)N[C@@H](CC(C)C)C(=O)N[C@@H](CCC(=O)O)C(=O)N[C@@H](CCC(N)=O)C(=O)N[C@@H](CCC(=O)O)C(=O)N[C@@H](CCCCN)C(=O)N[C@@H](CCC(N)=O)C(=O)N[C@@H](CCCCN)C(=O)N[C@@H](CCCCN)C(=O)N[C@@H](CCC(N)=O)C(=O)N[C@@H](CCCNC(=N)N)C(=O)N[C@@H](CCC(=O)O)C(=O)N[C@@H](CCC(N)=O)C(=O)N[C@@H](C)C(=O)N[C@@H](CCC(=O)O)C(=O)N[C@H](C(=O)N[C@@H](CC(N)=O)C(=O)NC(C)(C)C(=O)N[C@@H](CCC(N)=O)C(=O)N[C@H](C(=O)N[C@@H](CC(C)C)C(=O)N[C@@H](C)C(=O)N[C@@H](CCC(N)=O)C(=O)N[C@H](C(N)=O)C(C)C)[C@@H](C)CC)[C@@H](C)O)[C@@H](C)CC)[C@@H](C)CC)C(C)C)C(C)C [compound 64] (H-[NMeI]VLSLD[dV]PIKLK([γGlu-C16 diacid])KILLEQEKQKKQREQAETN[Aib]QILAQV-NH2)
Buffer stability pH 4.5 % purity loss [1]: nd/0 ^ %
Emax (% I) (CFR1R receptor): 4 % I
pEC50 (CFR1R receptor): < 6.60
Systolic blood pressure (Mean) % change from baseline, 8 h (Sprague Dawley rats): −25%
Systolic blood pressure (Mean) % change from baseline, 12 h (Sprague Dawley rats): −13%
Systolic blood pressure (Mean) % change from baseline, 24 h (Sprague Dawley rats): 3%
Duration of action (Sprague Dawley rats): 23 h
pEC50 (human CRF2a receptor): 9.72

CC[C@H](C)[C@H](NC(C)=O)C(=O)N[C@H](C(=O)N[C@@H](CC(C)C)C(=O)N[C@@H](CO)C(=O)N[C@@H](CC(C)C)C(=O)N[C@@H](CC(=O)O)C(=O)N[C@@H](C(=O)N1CCC[C@H]1C(=O)N[C@H](C(=O)N[C@@H](CCCCN)C(=O)N[C@@H](CC(C)C)C(=O)N[C@@H](CCCCNC(=O)COCCOCCNC(=O)COCCOCCNC(=O)CC[C@H](NC(=O)CCCCCCCCCCCCCCCCC(=O)O)C(=O)O)C(=O)N[C@@H](CCCCN)C(=O)N[C@H](C(=O)N[C@@H](CC(C)C)C(=O)N[C@@H](CC(C)C)C(=O)N[C@@H](CCC(=O)O)C(=O)N[C@@H](CCC(N)=O)C(=O)N[C@@H](CCC(=O)O)C(=O)N[C@@H](CCCCN)C(=O)N[C@@H](CCC(N)=O)C(=O)N[C@@H](CCCCN)C(=O)N[C@@H](CCCCN)C(=O)N[C@@H](CCC(N)=O)C(=O)N[C@@H](CCCNC(=N)N)C(=O)N[C@@H](CCC(=O)O)C(=O)N[C@@H](CCC(N)=O)C(=O)N[C@@H](C)C(=O)N[C@@H](CCC(=O)O)C(=O)N[C@H](C(=O)N[C@@H](CC(N)=O)C(=O)N[C@@H](C)C(=O)N[C@@H](CCC(N)=O)C(=O)N[C@H](C(=O)N[C@@H](CC(C)C)C(=O)N[C@@H](C)C(=O)N[C@@H](CCC(N)=O)C(=O)N[C@H](C(N)=O)C(C)C)[C@@H](C)CC)[C@@H](C)O)[C@@H](C)CC)[C@@H](C)CC)C(C)C)C(C)C [compound 100] (Ac-IVLSLD[dV]PIKLK([AEEA-AEEA-γGlu-C18 diacid])KILLEQEKQKKQREQAETNAQILAQV-NH2)
Buffer stability pH 4.5 % purity loss [1]: 0%
Buffer stability pH 7.4 % purity loss [1]: 13.2%
Emax (% I) (CFR1R receptor): 8 % I
pEC50 (CFR1R receptor): < 6.60
Systolic blood pressure (Mean) % change from baseline, 8 h (Sprague Dawley rats): −22%
Systolic blood pressure (Mean) % change from baseline, 12 h (Sprague Dawley rats): −12%
Systolic blood pressure (Mean) % change from baseline, 24 h (Sprague Dawley rats): −9%
Duration of action (Sprague Dawley rats): >24 h
pEC50 (human CRF2a receptor): 9.39

— patent US20260001928A1 (CORTERIA PHARMACEUTICALS, priority 2022, published 2026)
